For data set [1], the system named is Neutrophil. The data set can be described thus: Induction of apoptosis in mouse neutrophils assessed as late apoptotic cells at 20 uM incubated for 16 hrs by Annexin V-FITC/PI staining based flow cytometry analysis (reference value: 24.1%). Format: toxicity, cell-based.
Data set [2] concerns Neutrophil. The data set is described as follows: Induction of apoptosis in mouse neutrophils assessed as early apoptotic cells at 40 uM incubated for 16 hrs by Annexin V-FITC/PI staining based flow cytometry analysis (reference value: 25.9%). Type of data set: toxicity, cell-based. Background: A flow cytometer gives signals particle by particle.
Data set [3] is described as follows: Cytotoxicity against mouse neutrophils assessed as cell viability at 40 uM relative to control. Format: toxicity, cell-based, Neutrophil. The following applies: mouse neutrophils, read-out: Activity.
Data set [4] deals with Neutrophil. The data set can be described thus: Induction of apoptosis in mouse neutrophils assessed as late apoptotic cells at 40 uM incubated for 16 hrs by Annexin V-FITC/PI staining based flow cytometry analysis (reference value: 24.1%). Format: toxicity, cell-based.
The test system of data set [5] is Candida albicans. The data set can be described thus: Induction of neutrophil-mediated antifungal immunity against Candida albicans SC5314 infected in mouse assessed as reduction in PD-L1 positive Ly6G positive neutrophils in kidney at 100 mg/kg, po administered once a day for 3 days by flow cytometry analysis. Format: functional, organism-based. The settings on record: time 3.0 day.

Data set [6] in a line: Half life in Sprague-Dawley rat. Type of data set: ADME. The following applies: in vivo.
Data set [7] deals with Candida albicans. The data set is described as follows: Induction of neutrophil-mediated antifungal immunity against Candida albicans SC5314 infected in mouse assessed as reduction in fungal burden in kidneys at 100 mg/kg, po administered once a day for 3 days. The settings on record: time 3.0 day. Format: functional, organism-based.
In data set [8] the test system is Neutrophil. The data set can be described thus: Induction of apoptosis in mouse neutrophils assessed as dead cells at 20 uM incubated for 16 hrs by Annexin V-FITC/PI staining based flow cytometry analysis (reference value: 1.58%). Format: toxicity, cell-based.
The test system of data set [9] is Candida albicans. The data set is described as follows: Induction of neutrophil-mediated antifungal immunity against Candida albicans SC5314 infected in mouse assessed as reduction in fungal clusters in kidney at 100 mg/kg, po administered once a day for 3 days by PAS staining based analysis. The settings on record: time 3.0 day. Format: functional, organism-based.

The nature of data set [10]: AUC (0 to infinity) in Sprague-Dawley rat at 20 mg/kg, iv. The settings on record: in vivo. Format: ADME, organism-based.
In data set [11] the test system is Candida albicans. The data set is described as follows: Induction of neutrophil-mediated antifungal immunity against Candida albicans SC5314 infected in cyclophosphamide-induced immunosuppressed C57BL/6 mouse at 100 mg/kg, po pretreated with CTX for 3 days followed by fungal infection and further administered with compound once a day for 3 days. Format: functional, organism-based. The following applies: time 3.0 day.

A short description of data set [12]: Cytotoxicity against mouse neutrophils assessed as reduction in cell viability incubated for 16 hrs by flow cytometry analysis. Format: toxicity, cell-based, Neutrophil.
Data set [13] is described as follows: Induction of apoptosis in mouse neutrophils assessed as live cells at 40 uM incubated for 16 hrs by Annexin V-FITC/PI staining based flow cytometry analysis (reference value: 48.5%). Format: toxicity, cell-based, Neutrophil. The following applies: read-out: Activity.
Data set [14] concerns Candida albicans. The data set is described as follows: Antifungal activity against Candida albicans SC5314 assessed as inhibition of fungal growth at 0.25 to 128 ug/ml measured every 3 hrs for 24 hrs by absorbance based analysis. The following applies: dose 0.25-128 µg/ml. Type of data set: functional, organism-based.
Data set [15] can be described thus: Induction of apoptosis in mouse neutrophils assessed as live cells at 20 uM incubated for 16 hrs by Annexin V-FITC/PI staining based flow cytometry analysis (reference value: 48.5%). The following applies: read-out: Activity. Format: toxicity, cell-based, Neutrophil.
The nature of data set [16]: Inhibition of fungal curdlan induced PD-L1 expression in mouse neutrophils assessed as reduction in PD-L1 positive Ly6G positive neutrophils incubated for 16 hrs by flow cytometry analysis. The following applies: Neutrophil. Format: functional, cell-based.
The nature of data set [17]: Inhibition of fungal curdlan induced PD-L1 expression in mouse neutrophils at 40 uM relative to control. Type of data set: functional, Neutrophil. The settings on record: Mus musculus, Neutrophil.
The test system of data set [18] is Candida albicans. The data set can be described thus: Induction of neutrophil-mediated antifungal immunity against Candida albicans SC5314 infected in mouse assessed as increase in animal survival rate at 100 mg/kg, po administered once a day for 3 days. Type of data set: functional, organism-based. The following applies: time 3.0 day.
Data set [19] has as its system Candida albicans. The data set can be described thus: Induction of neutrophil-mediated antifungal immunity against Candida albicans SC5314 infected in mouse assessed as inhibition of CXCL1 protein expression in bone marrow at 100 mg/kg, po administered once a day for 3 days by ELISA. Type of data set: functional, organism-based. The following applies: time 3.0 day.

In data set [20] the target is Signal transducer and activator of transcription 3 (Mus musculus) (UniProt P42227). The data set is described as follows: Inhibition of biotinylated ACT001 probe binding to STAT3 in mouse bone marrow neutrophils at 100 uM by pulldown based Western blot analysis. Type of data set: cell-based. The settings on record: Neutrophil.
For data set [21], the system named is Neutrophil. The data set can be described thus: Induction of apoptosis in mouse neutrophils assessed as dead cells at 40 uM incubated for 16 hrs by Annexin V-FITC/PI staining based flow cytometry analysis (reference value: 1.58%). Format: toxicity, cell-based.
Data set [22] deals with Candida albicans. The data set can be described thus: Induction of neutrophil-mediated antifungal immunity against Candida albicans SC5314 infected in mouse assessed as reduction in PD-L1 positive Ly6G positive neutrophils in bone marrow at 100 mg/kg, po administered once a day for 3 days by flow cytometry analysis. Format: functional, organism-based. The following applies: time 3.0 day.

Data set [23] deals with Candida albicans. The data set is described as follows: Induction of neutrophil-mediated antifungal immunity against Candida albicans SC5314 infected in mouse assessed as inhibition of CXCL2 protein expression in bone marrow at 100 mg/kg, po administered once a day for 3 days by ELISA. Format: functional, organism-based. The following applies: time 3.0 day. (In general: In an ELISA, binding on a coated surface is turned into a signal by an enzyme label.)

Data set [24] deals with Neutrophil. The data set can be described thus: Induction of apoptosis in mouse neutrophils assessed as early apoptotic cells at 20 uM incubated for 16 hrs by Annexin V-FITC/PI staining based flow cytometry analysis (reference value: 25.9%). Format: toxicity, cell-based.
Data set [25] deals with Candida albicans. The data set is described as follows: Induction of neutrophil-mediated antifungal immunity against Candida albicans SC5314 infected in mouse assessed as reduction in accumulation of Ly6G positive neutrophils in bone marrow at 100 mg/kg, po administered once a day for 3 days. The following applies: time 3.0 day. Format: functional, organism-based.
For data set [26], the system named is Neutrophil. The data set is described as follows: Induction of neutrophil-mediated antifungal immunity against Candida albicans SC5314 infected in mouse assessed as increase in neutrophil infiltration in kidney at 100 mg/kg, po administered once a day for 3 days. The settings on record: time 3.0 day. Format: functional, organism-based.
Data set [27] in a line: Therapeutic index, ratio of IC50 for cytotoxicity against mouse neutrophils to IC50 for inhibition of fungal curdlan induced PD-L1 expression in mouse neutrophils. Type of data set: toxicity. The settings on record: read-out: Ratio IC50.
A short description of data set [28]: Oral bioavailability in Sprague-Dawley rat. Type of data set: ADME, organism-based. The settings on record: in vivo.
The nature of data set [29]: Permeability of compound in PBS/EtOH (70:30) buffer incubated for 12 hrs by PAMPA-BBB assay. Format: ADME. The following applies: read-out: permeability. A general note: PAMPA measures passive passage across an artificial lipid membrane.
A short description of data set [30]: Cytotoxicity against mouse polymorphonuclear neutrophils assessed as cell viability at 20 uM incubated for 16 hrs. Format: toxicity, cell-based. The following applies: polymorphonuclear neutrophil.
Data set [31] deals with Polymorphonuclear neutrophil. The data set can be described thus: Inhibition of fungal curdlan induced PD-L1 protein expression in mouse polymorphonuclear neutrophils at 20 uM incubated for 16 hrs by ELISA. Type of data set: functional, cell-based.
Data set [32] concerns the target Signal transducer and activator of transcription 3 (Homo sapiens, UniProt P40763). The data set can be described thus: Binding affinity to Cys542 residue of human recombinant STAT3 assessed as covalent modification by measuring mass shift by LC-MS/MS analysis.

The source made the active and inactive calls. The rule behind the calls is not given here.

Chain of Signal transducer and activator of transcription 3 (Mus musculus) (P42227 whole entry): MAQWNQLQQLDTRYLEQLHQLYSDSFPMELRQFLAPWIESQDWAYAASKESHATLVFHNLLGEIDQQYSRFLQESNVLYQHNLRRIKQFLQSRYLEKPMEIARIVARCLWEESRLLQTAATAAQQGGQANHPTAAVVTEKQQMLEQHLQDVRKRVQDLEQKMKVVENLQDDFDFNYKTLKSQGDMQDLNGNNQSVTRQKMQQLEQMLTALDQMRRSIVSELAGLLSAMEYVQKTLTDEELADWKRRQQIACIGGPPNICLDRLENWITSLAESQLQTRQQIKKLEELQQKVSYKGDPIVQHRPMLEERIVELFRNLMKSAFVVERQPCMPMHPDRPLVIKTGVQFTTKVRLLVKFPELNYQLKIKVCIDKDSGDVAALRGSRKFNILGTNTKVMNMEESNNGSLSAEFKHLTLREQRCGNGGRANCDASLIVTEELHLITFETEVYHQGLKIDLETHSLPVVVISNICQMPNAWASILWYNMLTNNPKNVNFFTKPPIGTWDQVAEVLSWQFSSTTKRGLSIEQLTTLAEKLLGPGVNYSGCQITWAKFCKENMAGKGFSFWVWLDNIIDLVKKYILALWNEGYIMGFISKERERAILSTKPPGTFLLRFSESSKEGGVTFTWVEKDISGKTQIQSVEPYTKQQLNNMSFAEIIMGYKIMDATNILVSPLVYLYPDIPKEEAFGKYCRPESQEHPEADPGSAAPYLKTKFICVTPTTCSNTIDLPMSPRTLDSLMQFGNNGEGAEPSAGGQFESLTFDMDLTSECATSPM
Chain of Signal transducer and activator of transcription 3 (P40763 whole entry): as the sequence (P42227 whole entry) above, with D760E counted along it

For the compound `CC1=C2CC[C@@](C)(O)[C@@H]2[C@H]2OC(=O)[C@@H](CN(C)C)[C@@H]2CC1` [ACT-001], the Activity with Neutrophil [1] came to 25.2%; in the data set on Neutrophil [2], 39.2%; in the data set with Neutrophil [4] it was 29.9%; with Neutrophil [8], 2.62%; with Neutrophil [21], 4.28%; in the data set with Neutrophil [24], 35.1%. Also, the viability at 40 µM in data set [3] is 27.6%. Further, the outcome in the data set on Candida albicans [5], with Candida albicans [7], in the data set on Candida albicans [9], in the data set with Candida albicans [18], with Candida albicans [19] and with Candida albicans [22] was Active. For the same compound, the result with Candida albicans [23], in the data set with Candida albicans [25] and with Neutrophil [26] was Active. Also, the half-life – broadly, the time in which the quantity being followed falls by half – in data set [6] was 1.12 h. Besides, the AUC(0-inf) (usually the area under the concentration-time curve extrapolated to infinity) in data set [10] was 5540 ng·h/mL. The result in the data set on Candida albicans [11] and in the data set with Candida albicans [14] was inactive. Further, the half-inhibitory concentration (IC50) – broadly, the concentration at which inhibition is half-maximal – at 16 h in data set [12] worked out at 29.3 µM. Moreover, in [13], the viability at 16 h, 40 µM turned out to be 26.6%. The viability at 16 h, 20 µM in [15] amounted to 37.1%. Also, the 50% inhibitory concentration (IC50) in data set [16] is 16.8 µM. For the same compound, the inhibition (in general, the change of the read-out against control, counted positive when it falls) at 40 µM in [17] stood at 72.8%. For the same compound, in data set [20], the inhibition result is “Active”. The selectivity ratio in data set [27] was 1.7. For the same compound, the bioavailability (in general, dose-corrected exposure relative to a reference, in per cent) in [28] was determined as 50.8%. Further, the Papp at 12 h in data set [29] is 4.7 ×10⁻⁶ cm/s.

`C=C1C(=O)O[C@H]2[C@H]1CC[C@]1(C)O[C@@]13CC[C@@](C)(O)[C@H]23`: the Activity entry is “Non-Toxic” in data set [30] and 265 Da in data set [32]. In data set [31], the inhibition entry is “Active”.

Values taken from ChEMBL document CHEMBL5543121, “Drug Repurposing of ACT001 to Discover Novel Promising Sulfide Prodrugs with Improved Safety and Potent Activity for Neutrophil-Mediated Antifungal Immunotherapy” (J Med Chem, 2024).
